For one experiment, the target named is MDM2 (Homo sapiens (Human), UniProt Q00987). Nature of the experiment: In vitro MDM2 HTRF assay (inhibition of p53-MDM2 interaction). It is filed as binding. The conditions noted are these: GST-MDM2 / biotinylated p53 peptide.
Experiment [1] deals with BCL-2-dependent acute lymphoblastic leukemia (ALL) cell line RS4;11 overexpressing Bcl-2 G101V. Nature of the experiment: cells. It is filed as cell-based. The settings on record: Homo sapiens, RS4-11; about 72 hours, ATPlite luminescence; read-out: RS4;11-G101V IC50. The procedure, abridged:
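About 1×10^4 cells per well treated with compound for about 72 hours in medium with 5% FBS or 10% normal human serum. Viability from ATP-based luminescence (ATPlite) after lysis; IC50 derived from dose range.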
(In general: ATP-based viability assays read luminescence as a measure of living cells.)

Sequence of MDM2 (Q00987 whole entry): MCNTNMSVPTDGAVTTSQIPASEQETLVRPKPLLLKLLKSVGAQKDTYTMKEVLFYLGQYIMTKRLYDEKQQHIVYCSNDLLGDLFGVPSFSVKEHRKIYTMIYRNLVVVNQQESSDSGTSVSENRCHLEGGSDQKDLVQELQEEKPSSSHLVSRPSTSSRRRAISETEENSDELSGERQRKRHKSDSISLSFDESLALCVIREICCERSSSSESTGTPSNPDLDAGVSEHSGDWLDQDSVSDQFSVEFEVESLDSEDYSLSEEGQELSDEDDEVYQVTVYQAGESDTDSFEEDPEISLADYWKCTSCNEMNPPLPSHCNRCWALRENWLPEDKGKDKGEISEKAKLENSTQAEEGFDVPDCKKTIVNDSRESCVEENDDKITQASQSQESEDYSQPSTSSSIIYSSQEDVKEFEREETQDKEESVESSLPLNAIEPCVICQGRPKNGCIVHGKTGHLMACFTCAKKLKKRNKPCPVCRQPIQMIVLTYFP

Consider `COc1cc(C(=O)N2CCCC[C@H]2CCC#Cc2cccc3c2CN([C@@H]2CCC(=O)NC2=O)C3=O)ccc1NC(=O)[C@@H]1N[C@@H](CC(C)(C)C)[C@@]2(CNc3cc(Cl)ccc32)[C@H]1c1cccc(Cl)c1F` [Example 38, (2′S,3S,4′S,5′R)-6-chloro-4′-(3-chloro-2-fluorophenyl)-2′-(2,2-dimethylpropyl)-N-{4-[(2S)-2-(4-{2-[(3R)-2,6-dioxopiperidin-3-yl]-1-oxo-3H-isoindol-4-yl}but-3-yn-1-yl)piperidine-1-carbonyl]-2-methoxyphenyl}-1,2-dihydrospiro[indole-3,3′-pyrrolidine]-5′-carboxamide], for which the IC50 against MDM2 was determined as 3.82 nM; in experiment [1] it was 67.9 nM.
The corresponding values for `COc1cc(C(=O)N2CCCC[C@H]2CCC#Cc2cccc3c2CN([C@H]2CCC(=O)NC2=O)C3=O)ccc1NC(=O)[C@@H]1N[C@@H](CC(C)(C)C)[C@@]2(CNc3cc(Cl)ccc32)[C@H]1c1cccc(Cl)c1F` [Example 39, (2′S,3S,4′S,5′R)-6-chloro-4′-(3-chloro-2-fluorophenyl)-2′-(2,2-dimethylpropyl)-N-{4-[(2S)-2-(4-{2-[(3S)-2,6-dioxopiperidin-3-yl]-1-oxo-3H-isoindol-4-yl}but-3-yn-1-yl)piperidine-1-carbonyl]-2-methoxyphenyl}-1,2-dihydrospiro[indole-3,3′-pyrrolidine]-5′-carboxamide] are 2.67 nM and 127 nM.
For the compound `COc1cc(C(=O)N2CCC3(CC2)CC(C#Cc2cccc4c2CN(C2CCC(=O)NC2=O)C4=O)C3)ccc1NC(=O)[C@@H]1N[C@@H](CC(C)(C)C)[C@@]2(CNc3cc(Cl)ccc32)[C@H]1c1cccc(Cl)c1F` (stereo partly drawn) [Example 42, (2′S,3S,4′S,5′R)-6-chloro-4′-(3-chloro-2-fluorophenyl)-N-(4-(2-((2-(2,6-dioxopiperidin-3-yl)-1-oxoisoindolin-4-yl)ethynyl)-7-azaspiro[3.5]nonane-7-carbonyl)-2-methoxyphenyl)-2′-neopentylspiro[indoline-3,3′-pyrrolidine]-5′-carboxamide], the IC50 against MDM2 is 4.51 nM; in experiment [1], 99.1 nM.
Taken in the same sequence, the figures for `COc1cc(C(=O)N2CCC3(CC2)C[C@H]3C#Cc2cccc3c2CN(C2CCC(=O)NC2=O)C3=O)ccc1NC(=O)[C@@H]1N[C@@H](CC(C)(C)C)[C@@]2(CNc3cc(Cl)ccc32)[C@H]1c1cccc(Cl)c1F` (stereo partly drawn) [Example 43, (2′S,3S,4′S,5′R)-6-chloro-4′-(3-chloro-2-fluorophenyl)-2′-(2,2-dimethylpropyl)-N-{4-[(1R)-1-{2-[2-(2,6-dioxopiperidin-3-yl)-1-oxo-3H-isoindol-4-yl]ethynyl}-6-azaspiro[2.5]octane-6-carbonyl]-2-methoxyphenyl}-1,2-dihydrospiro[indole-3,3′-pyrrolidine]-5′-carboxamide] were 4.67 nM and 28.3 nM.
Taken in the same sequence, the figures for `COc1cc(C(=O)N2CCC3(CC2)C[C@@H]3C#Cc2cccc3c2CN(C2CCC(=O)NC2=O)C3=O)ccc1NC(=O)[C@@H]1N[C@@H](CC(C)(C)C)[C@@]2(CNc3cc(Cl)ccc32)[C@H]1c1cccc(Cl)c1F` (stereo partly drawn) [Example 44, (2′S,3S,4′S,5′R)-6-chloro-4′-(3-chloro-2-fluorophenyl)-2′-(2,2-dimethylpropyl)-N-{4-[(1S)-1-{2-[2-(2,6-dioxopiperidin-3-yl)-1-oxo-3H-isoindol-4-yl]ethynyl}-6-azaspiro[2.5]octane-6-carbonyl]-2-methoxyphenyl}-1,2-dihydrospiro[indole-3,3′-pyrrolidine]-5′-carboxamide] were 1.83 nM and 13.1 nM.

These data come from US20250073340A1, “SPIROCYCLIC MDM2 MODULATOR AND USES THEREOF” (Newave Pharmaceutical Inc., priority 2021, published 2025).
